Experimental data as given in PubChem BioAssay (NCI).
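Where inhibition never reached the appropriate level, the endpoint shown equals the highest concentration tested. Otherwise, values were interpolated linearly from a five-concentration, 48-hour dose response in 96-well plates. The concentration for 50% growth inhibition is given as GI50. TGI marks complete inhibition of growth.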

Experiments:
Experiment in all cases: NCI-60 cell line screen, 48 h
OVCAR-3 ovarian = test system: OVCAR-3 ovarian
A498 renal = test system: A498 renal
UO-31 renal = test system: UO-31 renal
IGROV1 ovarian = test system: IGROV1 ovarian
RXF 393 renal = test system: RXF 393 renal
OVCAR-8 ovarian = test system: OVCAR-8 ovarian
SNB-19 CNS = test system: SNB-19 CNS
U251 CNS = test system: U251 CNS
PC-3 prostate = test system: PC-3 prostate
786-0 renal = test system: 786-0 renal

| SMILES | GI50 (OVCAR-3 ovarian) [µM] | GI50 (A498 renal) [µM] | TGI (A498 renal) [µM] | GI50 (UO-31 renal) [µM] | TGI (UO-31 renal) [µM] | GI50 (IGROV1 ovarian) [µM] | GI50 (RXF 393 renal) [µM] | TGI (RXF 393 renal) [µM] | GI50 (OVCAR-8 ovarian) [µM] | TGI (OVCAR-8 ovarian) [µM] | GI50 (SNB-19 CNS) [µM] | TGI (SNB-19 CNS) [µM] | GI50 (U251 CNS) [µM] | TGI (U251 CNS) [µM] | GI50 (PC-3 prostate) [µM] | TGI (OVCAR-3 ovarian) [µM] | TGI (IGROV1 ovarian) [µM] | TGI (786-0 renal) [µM] | TGI (PC-3 prostate) [µM] |
| --- | --- | --- | --- | --- | --- | --- | --- | --- | --- | --- | --- | --- | --- | --- | --- | --- | --- | --- | --- |
| C[C@H]1CCC/C=C/[C@@H]2C[C@H](O)C[C@H]2[C@H](O)[C@@H](S(=O)CCN)CC(=O)O1 (some centres undefined) | 0.0495 | 0.0322 | 0.126 | 0.0269 | 0.446 | 0.166 | < 0.0141 | 0.0456 | < 0.0181 | 0.154 | 0.21 | > 100 | 0.0538 | > 100 | 0.0442 |  |  |  |  |
| COc1cc2c(cc1OC)C(Cl)C(c1ccc(Cl)cc1)=C2Cl (centres undefined) |  |  | 46 |  | 32.6 |  |  |  |  | 60.5 |  | > 100 |  | 26.6 |  | 30.1 | 48.3 |  |  |
| Cc1cc(=O)[nH]c(NN2C(Cl)C(=O)C2c2cccc([N+](=O)[O-])c2)n1 (centres undefined) |  |  |  |  | > 100 |  |  | 22.5 |  | > 100 |  | > 100 |  | 47.4 |  | 32.3 |  |  |  |
| c1ccc2c[n+](CCCCCCCCCC[n+]3ccc4ccccc4c3)ccc2c1 |  |  | > 10 |  | > 10 |  |  | > 10 |  | > 10 |  | > 10 |  | > 10 |  | > 10 | > 10 | > 10 | > 10 |
| CC(C)(C)C1CCC2(CC1)CCN(CCCN1CCOCC1)CC2 |  |  | > 57.4 |  | > 100 |  |  | > 82.3 |  | > 100 |  | > 100 |  | > 53.3 |  | > 100 | > 100 | 51 | > 100 |
| CN(C)CCNC(=O)c1cccc2nc3c4ccccc4c4ccccc4c3nc12 |  |  | 15.6 |  | 22.9 |  |  | 4.65 |  | 7.76 |  | 8.6 |  | 4.56 |  | 7 | 12.3 |  | 3.05 |
| O=C(O)c1ccccn1 |  |  | > 100 |  | > 100 |  |  | > 100 |  | > 100 |  | > 100 |  | > 100 |  | > 100 | > 100 | > 100 | > 100 |
| CN(C)c1ccc(C2CC(=O)C(C#N)=C(c3ccccc3)NN2C)cc1 (centres undefined) |  |  | > 100 |  |  |  |  | > 100 |  |  |  | > 100 |  | > 100 |  |  |  |  |  |
| N=C(N)c1ccc(-c2ccc(-c3ccc(Cl)cn3)s2)cc1 |  | 3.82 | 17.3 | 1.68 | 3.07 |  |  |  |  |  |  |  |  |  | 1.65 |  |  |  | 3.17 |
| CN(C)c1ccc2nc3c(C(=O)O)cc(=O)c(O)c-3oc2c1 |  |  | > 100 |  | 80.1 |  |  | 76.3 |  | > 100 |  | 89.8 |  | > 100 |  | 60.8 | > 100 | 82.7 | > 100 |
| CN(C)[C@@H]1C(=O)C(C(=O)NCNCCCC(=O)O)=C(O)[C@@]2(O)C(=O)C3=C(O)c4c(O)cccc4[C@@](C)(O)[C@H]3C[C@@H]12 |  |  | > 100 |  | > 100 |  |  | > 100 |  | > 100 |  | > 100 |  | > 100 |  | > 100 | > 100 | > 100 |  |
| O=C1c2ccccc2C(=O)c2c(NCCNC(=O)C3CCCN3)ccc(NCCNC(=O)C3CCCN3)c21 (centres undefined) |  |  |  |  | > 100 |  |  |  |  | 94.3 |  | > 100 |  | > 100 |  | > 100 | > 100 | 2.09 | > 100 |
